Assays:
pigweed = assay: Test B pre/postemergence pigweed; assay type: in vivo, Amaranthus retroflexus
How it was run: (§1)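 Response is a visual 0-to-10 score relative to untreated plants, where 0 means no effect and 10 means complete control, taken twelve to sixteen days after application. Treatments went onto soil at planting and onto foliage of 1- to 4-leaf plants, using a surfactant-containing non-phytotoxic solvent.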

rape = assay: Test B pre/postemergence rape; assay type: in vivo, Brassica napus
How it was run: as §1

sugar beet = assay: Test B pre/postemergence sugar beet; assay type: in vivo, Beta vulgaris
How it was run: as §1

velvetleaf = assay: Test B pre/postemergence velvetleaf; assay type: in vivo, Abutilon theophrasti
How it was run: as §1

wheat = assay: Test B pre/postemergence wheat; assay type: in vivo, Triticum aestivum
How it was run: as §1

wild oat = assay: Test B pre/postemergence wild oat; assay type: in vivo, Avena fatua
How it was run: as §1

purple nutsedge = assay: Test B pre/postemergence purple nutsedge; assay type: in vivo, Cyperus rotundus
How it was run: as §1

smallflower flatsedge = assay: Test B flood test smallflower flatsedge; assay type: in vivo, Cyperus difformis
How it was run: (§2)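 Flood test on plants grown to the 2-leaf stage; treated plants kept in greenhouse twelve to sixteen days, then visually rated against controls on a 0 (no effect) to 10 (complete control) scale.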

duck salad = assay: Test B flood test duck salad; assay type: in vivo, Heteranthera limosa
How it was run: as §2

[1] = Preemergence, Rate 500 g/ha, scale 0 to 10 (0 no effect, 10 complete control)
[2] = Rate 62 g/ha, Postemergence, scale of 0 to 10 where 0 is no effect and 10 is complete control
[3] = Rate 125 g/ha, Postemergence, scale 0 to 10
[4] = Rate 500 g/ha, Postemergence, scale 0 to 10
[5] = Rate 1000 g/ha, Preemergence, scale 0 to 10 (0 no effect, 10 complete control)
[6] = Rate 2000 g/ha, Postemergence, scale 0 to 10
[7] = Rate 2000 g/ha, Preemergence, scale 0 to 10
[8] = Postemergence, Rate 1000 g/ha, scale 0 to 10 (0 no effect, 10 complete control)
[9] = Preemergence, Rate 62 g/ha, scale of 0 to 10 where 0 is no effect and 10 is complete control
[10] = Preemergence, Rate 125 g/ha, 0 is no effect, 10 is complete control
[11] = Preemergence, Rate 250 g/ha, scale 0 to 10, 0 is no effect, 10 is complete control
[12] = Rate 62 g/ha, headed Pre-emergence (flood test species), scale 0 to 10 (0 no effect, 10 complete control)
[13] = Rate 125 g/ha, Pre-emergence, flood test species, scale 0 to 10 where 0 is no effect and 10 is complete control
[14] = Rate 250 g/ha, Pre-emergence, flood-test species, scale 0 to 10, 0 is no effect, 10 is complete control
[15] = Rate 2000 g/ha, Pre-emergence (as headed), scale 0 to 10

CCN(C(=O)n1oc(=O)n(N(C)c2ccccc2)c1=O)C1CCCCC1 [Compound 183] was tested, and the “Redroot pigweed plant response rating” value (pigweed; [1]) was 0, the “Redroot pigweed plant response rating” value (pigweed; [2]) was 0 and the “Redroot pigweed plant response rating” value (pigweed; [3]) was 0. For the same molecule, the “Plant response rating (0 to 10; 0 is no effect, 10 is complete control), Redroot pigweed” value (pigweed; Rate 250 g/ha, Postemergence) was 0, the “Redroot pigweed plant response rating” value (pigweed; [4]) was 0 and the “Plant response rating, Redroot pigweed” value (pigweed; [5]) was 0. The “Redroot pigweed plant response rating” value (pigweed; [6]) was 0, the “Redroot pigweed plant response rating” value (pigweed; [7]) was 0 and the “Rape plant response rating” value (rape; [8]) was 0. For the same molecule, the “Rape plant response rating” value (rape; [9]) was 0, the “Rape plant response rating (0 to 10 scale)” value (rape; [10]) was 0 and the “Rape plant response rating” value (rape; [11]) was 0. The “Rape plant response rating” value (rape; [1]) was 0, the “Rape plant response rating” value (rape; [2]) was 0 and the “Rape plant response rating” value (rape; [3]) was 0. The “Plant response rating (0 to 10; 0 is no effect, 10 is complete control), Rape” value (rape; Rate 250 g/ha, Postemergence) was 0, the “Rape plant response rating” value (rape; [4]) was 0 and the “Plant response rating, Rape” value (rape; [5]) was 0. The “Rape plant response rating” value (rape; [6]) was 0, the “Rape plant response rating” value (rape; [7]) was 0 and the “Sugarbeets plant response rating” value (sugar beet; [8]) was 0. For the same molecule, the “Sugarbeets plant response rating” value (sugar beet; [9]) was 0, the “Sugarbeets plant response rating (0 to 10 scale)” value (sugar beet; [10]) was 0 and the “Sugarbeets plant response rating” value (sugar beet; [11]) was 0. The “Sugarbeets plant response rating” value (sugar beet; [1]) was 0, the “Sugarbeets plant response rating” value (sugar beet; [2]) was 0 and the “Sugarbeets plant response rating” value (sugar beet; [3]) was 0. For the same molecule, the “Plant response rating (0 to 10; 0 is no effect, 10 is complete control), Sugarbeets” value (sugar beet; Rate 250 g/ha, Postemergence) was 0, the “Sugarbeets plant response rating” value (sugar beet; [4]) was 0 and the “Plant response rating, Sugarbeets” value (sugar beet; [5]) was 0. The “Sugarbeets plant response rating” value (sugar beet; [6]) was 0, the “Sugarbeets plant response rating” value (sugar beet; [7]) was 0 and the “Velvetleaf plant response rating” value (velvetleaf; [8]) was 1. The “Velvetleaf plant response rating” value (velvetleaf; [9]) was 0, the “Velvetleaf plant response rating” value (velvetleaf; [11]) was 0 and the “Velvetleaf plant response rating” value (velvetleaf; [1]) was 0. The “Velvetleaf plant response rating” value (velvetleaf; [3]) was 0, the “Plant response rating (0 to 10; 0 is no effect, 10 is complete control), Velvetleaf” value (velvetleaf; Rate 250 g/ha, Postemergence) was 0 and the “Velvetleaf plant response rating” value (velvetleaf; [4]) was 0. The “Plant response rating, Velvetleaf” value (velvetleaf; [5]) was 0, the “Velvetleaf plant response rating” value (velvetleaf; [6]) was 1 and the “Velvetleaf plant response rating” value (velvetleaf; [7]) was 0. For the same molecule, the “Wheat plant response rating” value (wheat; [8]) was 0, the “Wheat plant response rating” value (wheat; [9]) was 0 and the “Wheat plant response rating” value (wheat; [11]) was 0. The “Wheat plant response rating” value (wheat; [1]) was 0, the “Wheat plant response rating” value (wheat; [3]) was 0 and the “Plant response rating (0 to 10; 0 is no effect, 10 is complete control), Wheat” value (wheat; Rate 250 g/ha, Postemergence) was 0. The “Wheat plant response rating” value (wheat; [4]) was 0, the “Plant response rating, Wheat” value (wheat; [5]) was 0 and the “Wheat plant response rating” value (wheat; [6]) was 0. The “Wheat plant response rating” value (wheat; [7]) was 0, the “Wild oats plant response rating” value (wild oat; [8]) was 0 and the “Wild oats plant response rating” value (wild oat; [9]) was 0. For the same molecule, the “Wild oats plant response rating” value (wild oat; [11]) was 0, the “Wild oats plant response rating” value (wild oat; [1]) was 0 and the “Wild oats plant response rating” value (wild oat; [3]) was 0. The “Plant response rating (0 to 10; 0 is no effect, 10 is complete control), Wild oats” value (wild oat; Rate 250 g/ha, Postemergence) was 0, the “Wild oats plant response rating” value (wild oat; [4]) was 0 and the “Plant response rating, Wild oats” value (wild oat; [5]) was 0. The “Wild oats plant response rating” value (wild oat; [6]) was 0, the “Wild oats plant response rating” value (wild oat; [7]) was 3 and the “Nutsedge plant response rating” value (purple nutsedge; [8]) was 0. For the same molecule, the “Nutsedge plant response rating” value (purple nutsedge; [9]) was 0, the “Nutsedge plant response rating (0 to 10 scale)” value (purple nutsedge; [10]) was 0 and the “Nutsedge plant response rating” value (purple nutsedge; [11]) was 0. The “Nutsedge plant response rating” value (purple nutsedge; [1]) was 0, the “Nutsedge plant response rating” value (purple nutsedge; [2]) was 0 and the “Nutsedge plant response rating” value (purple nutsedge; [3]) was 0. The “Plant response rating (0 to 10; 0 is no effect, 10 is complete control), Nutsedge” value (purple nutsedge; Rate 250 g/ha, Postemergence) was 0, the “Nutsedge plant response rating” value (purple nutsedge; [4]) was 0 and the “Plant response rating, Nutsedge” value (purple nutsedge; [5]) was 0. The “Nutsedge plant response rating” value (purple nutsedge; [6]) was 0, the “Nutsedge plant response rating” value (purple nutsedge; [7]) was 0 and the “S. Flatsedge plant response rating” value (smallflower flatsedge; Pre-emergence, Rate 1000 g/ha, scale 0 to 10 (0 no effect, 10 complete control)) was 0. The “S. Flatsedge plant response rating” value (smallflower flatsedge; [12]) was 0, the “S. Flatsedge plant response rating” value (smallflower flatsedge; [13]) was 0 and the “S. Flatsedge plant response rating” value (smallflower flatsedge; [14]) was 0. The “S. Flatsedge plant response rating” value (smallflower flatsedge; Rate 500 g/ha, Pre-emergence, flood test species, scale 0 to 10 (0 no effect, 10 complete control)) was 0, the “S. Flatsedge plant response rating” value (smallflower flatsedge; [15]) was 0 and the “Ducksalad plant response rating” value (duck salad; [12]) was 0. The “Ducksalad plant response rating” value (duck salad; [13]) was 0, the “Ducksalad plant response rating” value (duck salad; [14]) was 0 and the “Plant response rating, Ducksalad” value (duck salad; Rate 500 g/ha, headed Pre-emergence (flood test species), scale 0 to 10 (0 no effect, 10 complete control)) was 0. For the same molecule, the “Ducksalad plant response rating” value (duck salad; Rate 1000 g/ha, Pre-emergence (as headed), scale 0 to 10) was 0 and the “Ducksalad plant response rating” value (duck salad; [15]) was 0.
